Test results reported in BindingDB's records for doi:10.3109/14756366.2012.692086 (Giresun University, 2013).

Biological target: T1, Neutrophil elastase (Homo sapiens, UniProt P08246)
T1 sequence (P08246 whole entry): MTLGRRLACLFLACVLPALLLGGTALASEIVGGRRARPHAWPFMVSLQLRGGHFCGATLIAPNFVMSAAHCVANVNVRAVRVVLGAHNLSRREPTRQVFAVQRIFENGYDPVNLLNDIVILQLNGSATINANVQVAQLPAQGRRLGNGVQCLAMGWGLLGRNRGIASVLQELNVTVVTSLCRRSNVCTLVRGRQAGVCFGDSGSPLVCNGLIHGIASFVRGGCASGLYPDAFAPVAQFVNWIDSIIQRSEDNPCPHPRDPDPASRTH
Experiment: Elastase Activity Assay
From the text: The elastase inhibitor activity was examined using N-succinyl-Ala-Ala-Ala-pnitroanilide (STANA) as the substrate and by the measuring of the release of p-nitroaniline at 410 nm [James et al., Biochemistry, 35:9090-9096].

IC50 [nM]	Structure (SMILES)
125	CN(CCN(Cc1cc(=O)oc2c(O)c(O)ccc12)c1ccccc1)c1ccccc1 [4,4'-(Ethane-1,2-diylbis(phenylazanediyl))bis(methylene)bis(6,7-dihydroxy-2H-chromen-2-one) (7)]
127	CN(CCN(Cc1cc(=O)oc2cc(O)c(O)cc12)c1ccccc1)c1ccccc1 [4,4'-(Ethane-1,2-diylbis(phenylazanediyl))bis(methylene)bis(7,8-dihydroxy-2H-chromen-2-one) (3)]
416	C[C@H]1[C@H](C)CC[C@]2(C(=O)O)CC[C@]3(C)C(=CC[C@@H]4[C@@]5(C)CC[C@H](O)C(C)(C)[C@@H]5CC[C@]43C)[C@H]12 [3beta-hydroxyurs-12-en-28-oic acid]
